Data taken from US6603023B2 (priority 1996, dated 2003).
Like-named read-outs stand apart in the source and are kept apart here.

What was measured:
MCF-7 = experiment: SRB cytotoxicity, MCF-7; assay type: cell-based, human; conditions: Homo sapiens, MCF7, 72 h
In short: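 Monolayer MCF-7 cultures exposed to six to seven drug concentrations in duplicate, then fixed with trichloroacetic acid and stained 30 min with 0.4% sulforhodamine B. Bound dye extracted with unbuffered Tris base, absorbance read at 570 nm; values derived by median-effect plot analysis.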

SK-N-FI = experiment: cells; assay type: cell-based, human; conditions: Homo sapiens, SK-N-FI, 72 h
In short: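 Cellular protein content measured with sulforhodamine B after trichloroacetic acid fixation, read at 570 nm. Each duplicate run used six to seven concentrations, analysed by the median-effect method. Cells were cultured at 37 °C, 5% CO2 in RPMI 1640-10% FBS, and drug-resistant lines were maintained with their selecting agent.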

[1] = system: human mammary carcinoma MX-1 xenograft; design: Toxicity toward Nude Mice: key to the marks not given beside the values; conditions: for Average Body Weight, Day 7: initial weight, first treatment day
Procedure: DMSO was used as a vehicle for epothilones. Each mouse received ≦40 μL DMSO in all experiments.
Athymic nude mice (nu/nu) were used for MX-1 and MCF-7/Adr human mammary carcinoma xenografts. Mice were obtained from Taconic Laboratory Animals and Service (Germantown, N.Y.: outbred, Swiss background).

DC-3F/ADX = experiment: cells; assay type: cell-based, hamster; conditions: DC3F/ADX
In short: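 Cell protein content measured by sulforhodamine B staining after trichloroacetic acid fixation, read at 570 nm; duplicate runs of six to seven concentrations fitted by median-effect analysis. Lines are actinomycin D-resistant DC-3F hamster lung sublines (ADII, ADX), kept under selecting drug in RPMI 1640-10% FBS.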

murine leukemic P388/0 = experiment: XTT cytotoxicity, P388/0; assay type: cell-based; conditions: Mus musculus, P388, 72 h
In short: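 Growth was read by XTT/PMS reduction over 4 h at 37 °C after 72 h of compound treatment, with absorbance at 450 nm and 630 nm. CCRF-CEM, P388 and their resistant sublines, grown continuously with their selecting drugs, were cultured in duplicate at 5×10^4 cells/mL. The medium was RPMI-1640 with 10% FBS.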

[2] = Taxol 5 mg/kg on day 8-16 and 18-26, n = 10
[3] = Taxol 24 mg/kg, 6 hr i.v. infusion Q2D x 5 (day 8-16)
[4] = dEpo B 30, Taxol 15 mg/kg, 6 hr i.v. infusion Q2D x 5 (day 8-16), TD: Tumor disappearance
[5] = extended experiment, Desoxyepo B 40, Taxol 5 mg/kg i.p. Q2D day 8-16 and 18-26
[6] = high doses: dEpoB 25, EpoB 0.6, Taxol 10, Vinblastine 0.4 mg/kg i.p. Q2D from day 7
[7] = low doses: dEpoB 15, EpoB 0.3, Taxol 5, Vinblastine 0.2 mg/kg i.p. Q2D day 7-15
[8] = male, athymic nude (nu/nu), outbred, Swiss background, mouse, in vivo

SMILES: CC(=O)O[C@H]1C(=O)[C@@]2(C)[C@H]([C@H](OC(=O)c3ccccc3)[C@]3(O)C[C@H](OC(=O)[C@H](O)[C@@H](NC(=O)c4ccccc4)c4ccccc4)C(C)=C1C3(C)C)[C@]1(OC(C)=O)CO[C@@H]1C[C@@H]2O [Taxol ®, paclitaxel]
- IC50 (MCF-7): 0.0033 µM
- IC50 (SK-N-FI): 0.13 µM
- Average Body Weight Change ([1]; 5 mg/kg i.p. Q2Dx5 from day 7, day 11): -0.1 g
- Average Body Weight Change ([1]; 5 mg/kg i.p. Q2Dx5 from day 7, day 13): +0.4 g
- Average Body Weight Change ([1]; 5 mg/kg i.p. Q2Dx5 from day 7, day 15): +1.1 g
- Average Body Weight Change ([1]; 5 mg/kg i.p. Q2Dx5 from day 7, day 17): +1.2 g
- Tumor Disapp. ([1]; 5 mg/kg i.p. Q2Dx5 from day 9): 0/6
- Average Body Weight Change ([1]; 5 mg/kg i.p. Q2Dx5 from day 9, day 13): -1.1 g
- Average Body Weight Change ([1]; 5 mg/kg i.p. Q2Dx5 from day 9, day 15): -2.0 g
- Average Body Weight Change ([1]; 5 mg/kg i.p. Q2Dx5 from day 9, day 17): -1.0 g
- Average Body Weight Change ([1]; 5 mg/kg i.p. Q2Dx5 from day 9, day 19): -0.2 g
- Tumor Disappearance ([1]; 5 mg/kg i.p. d8,10,12,14,16): 2/10
- Tumor Disappearance ([1]; 5 mg/kg i.p. d18-26, extended after d8-16, day 20): 0/10^
- Tumor Disappearance ([1]; 5 mg/kg i.p. d18-26, extended after d8-16, day 22): 0/10
- Tumor Disappearance ([1]; 5 mg/kg i.p. d18-26, extended after d8-16, day 24): 0/10
- Tumor Disappearance ([1]; 5 mg/kg i.p. d18-26, extended after d8-16, day 26): 0/10
- Tumor Disappearance ([1]; 5 mg/kg i.p. d18-26, extended after d8-16, day 28): 0/10
- Average Body Weight Change ([1]; 10 mg/kg i.p. Q2Dx5 from day 7, day 11): -2.7 g
- Average Body Weight Change ([1]; 10 mg/kg i.p. Q2Dx5 from day 7, day 13): -1.1 g
- Average Body Weight Change ([1]; 10 mg/kg i.p. Q2Dx5 from day 7, day 15): -0.3 g
- Average Body Weight Change ([1]; 10 mg/kg i.p. Q2Dx5 from day 7, day 17): +2.2 g
- Tumor Disappearance ([1]; 10 mg/kg i.p. d8,10,12,14,16): 2/6
- tumor reappeared on day ([1]; 10 mg/kg, no extended test): Reappeared on day 38
- Tumor Disappearance ([1]; 10 mg/kg, no extended test, day 16): 1/6 on day 16
- Lowest Average Tumor Size (T/C) ([1]; MX-1, dEpoB 30 mg/kg Q2D x 6, Taxol 15 mg/kg Q2D x 6): 0 T/C
- tumor volume reduction ([1]; Taxol 5 mg/kg i.p. Q2Dx5 from day 8): 53%
- Tumor Size (group average), Day 8 [1, 2]: 17 mm^3
- Tumor Size (group average), Day 10 [1, 2]: 45 mm^3
- Tumor Size (group average), Day 12 [1, 2]: 54 mm^3
- Tumor Size (group average), Day 14 [1, 2]: 128 mm^3
- Tumor Size (group average), Day 16 [1, 2]: 311 mm^3
- Tumor Size (group average), Day 18 [1, 2]: 596 mm^3
- Tumor Size (group average), Day 20 [1, 2]: 1114 mm^3
- Tumor Size (group average), Day 22 [1, 2]: 1930 mm^3
- Tumor Size (group average), Day 24 [1, 2]: 2285 mm^3
- Tumor reappearance (Reappear on day) ([1]; Taxol 10 mg/kg, no extended test): Reappear on day 38
- Tumor Disappearance ([1]; Taxol 10 mg/kg, on day 16, no extended test): 1/6 on day 16,
- Tumor Disapp. ([1]; Taxol 15 mg/kg i.v. Q2Dx5 from day 9): 2/6
- Average Body Weight (change), Day 14 [1, 3]: -4.8 g
- Average Body Weight (change), Day 16 [1, 3]: -5.3 g
- Average Body Weight (change), Day 18 [1, 3]: -6.0 g
- Average Body Weight (change), Day 20 [1, 3]: -6.2 g
- Tumor Disappearance [1, 3]: 4/4
- Average Tumor Size (T/C), Day 14 ([1]; Taxol 24 mg/kg, 6 hr i.v. infusion Q2D x 5 (day 8-16), TD: Tumor disappearance): 0.03 T/C
- Tumor Disappearance ([1]; dEpo B 30, Taxol 15 mg/kg, 6 hr i.v. infusion Q2D x 5 (day 8-16)): 4/4
- Average Tumor Size (T/C), Day 14 [1, 4]: 0.06 T/C
- Average Tumor Size (T/C), Day 16 [1, 4]: 0.01 T/C
- Average Body Weight Change, Day 20 [1, 5]: -1.6 g
- Average Body Weight Change, Day 22 [1, 5]: -0.3 g
- Average Body Weight Change, Day 24 [1, 5]: +0.1 g
- Average Body Weight Change, Day 26 [1, 5]: -0.6 g
- Average Body Weight Change, Day 28 [1, 5]: -0.4 g
- Tumor Disappearance, Day 20 [1, 5]: 0/10
- Tumor Disappearance, Day 22 [1, 5]: 0/10
- Tumor Disappearance, Day 24 [1, 5]: 0/10
- Tumor Disappearance, Day 26 [1, 5]: 0/10
- Tumor Disappearance, Day 28 [1, 5]: 0/10
- Average Tumor Volume (T/C), Day 11 [1, 6]: 0.43 T/C
- Average Tumor Volume (T/C), Day 13 [1, 6]: 0.37 T/C
- Average Tumor Volume (T/C), Day 15 [1, 6]: 0.12 T/C
- Average Tumor Volume (T/C), Day 17 [1, 6]: 0.11 T/C
- Average Body Weight, Day 7 [1, 6]: 27.6 g
- Average Body Weight, Day 7 [1, 7]: 26.9 g
- Average Tumor Volume (T/C), Day 11 [1, 7]: 0.54 T/C
- Average Tumor Volume (T/C), Day 13 [1, 7]: 0.46 T/C
- Average Tumor Volume (T/C), Day 15 [1, 7]: 0.40 T/C
- Average Tumor Volume (T/C), Day 17 [1, 7]: 0.45 T/C
- # Mice Died ([1]; male, athymic nude (nu/nu), mouse, in vivo): 0/10
- # Died of toxicity [1, 8]: 2/10
- # Mice Died [1, 8]: 1/6
- lethality [1, 8]: 2/6
- lethality (mice died of toxicity) [1, 8]: 2/10
- mice died of toxicity [1, 8]: 2 out of 10
- Tumor Disappearance ([1]; mouse, in vivo): 5/5
- mice died of toxicity ([1]; mouse, in vivo): four out of seven
- Toxicity toward Nude Mice ([1]; mouse, in vivo, ip, 15 mg/kg): ++++
- Toxicity toward Nude Mice ([1]; mouse, in vivo, ip, 35 mg/kg): ++
- Toxicity toward Nude Mice ([1]; mouse, in vivo, iv, 15 mg/kg): ++
- Toxicity toward Nude Mice ([1]; mouse, in vivo, iv, 24 mg/kg): ++
- Toxicity toward Nude Mice ([1]; mouse, in vivo, iv, 30 mg/kg): ++
- reduction in tumor volume ([1]; paclitaxel 5 mg/kg): 55%
- average tumor size on day 24 ([1]; paclitaxel 5 mg/kg Q2Dx5 i.p. d8-16 and d18-26, n=10): 2285±97 mm^3
- tumor reduction ([1]; paclitaxel 10 mg/kg): 89%
- IC50 (DC-3F/ADX; 72 h, Table 1C, SRB): 32 µM
- IC50 (DC-3F/ADX; Table 3): 32 µM
- IC50 (DC-3F/ADX; relative potency ordering): 32 µM
- IC50 (murine leukemic P388/0): 0.0029 µM
